Measured values: paper PMC10999543, “Identification of kinase modulators as host-directed therapeutics against intracellular methicillin-resistant Staphylococcus aureus” (Frontiers in Cellular and Infection Microbiology, 2024)
Read-outs that look alike come from different tables or passages of the source.

Legend:
[1] = tested on: intracellular MRSA in MelJuSo cells; assay: Gentamicin protection assay with CFU count in MRSA-infected MelJuSo cells; assay type: cell-based, Staphylococcus aureus; conditions: 10 µM, n=7
Protocol: The cells were resuspended in cell culture medium without antibiotics, seeded with 10,000 cells/well into Costar flat-bottom 96-well plates (Corning, Amsterdam, the Netherlands), and were incubated overnight at 37°C/5% CO2. The next day, the bacteria were centrifuged at ≥1800 g for 15 min and resuspended in cold PBS + 5 mM ethylenediaminetetraacetic acid (EDTA). The number of CFUs present in the bacterial suspension was estimated from the optical density at 600 nm (OD600) by assuming 8x10^8 CFUs to be present in a bacterial suspension with OD600 = 1, based on prior titrations. The bacterial suspension was diluted in cell culture medium without antibiotics and added to the cells. Accuracy of the multiplicity of infection (MOI) was validated by plating serial dilutions of the MRSA inoculums on Difco TS agar plates (BD Biosciences). The calculated mean MOI throughout all experiments was 6.8 ± 4.6 (mean ± SD). Infected cells were centrifuged for 3 min at 150 g and incubated for 1 hour at 37°C/5% CO2. Next, the cells were incubated with fresh cell culture medium supplemented with 30 µg/ml gentamicin sulphate (Lonza BioWhittaker, Basel, Switzerland) for 15 min at 37°C/5% CO2 to kill residual extracellular bacteria. Infected cells were incubated overnight at 37°C/5% CO2 in cell culture medium in the presence of kinase inhibitors and 5 µg/ml gentamicin sulphate-containing medium to prevent the growth of extracellular bacteria. The solvent of the compounds, DMSO, was used at equal % v/v as a negative control. For the screen, each compound was tested in triplicate, on separate cell culture plates, resulting in triplicate values for each kinase inhibitor.
Infected cells were lysed in sterile water + 0.05% UltraPure SDS solution (Invitrogen, ThermoFisher Scientific) to release intracellular bacteria. Bacterial suspensions and lysates of cells infected with MRSA were 5-fold serially diluted and 10-μl drops were plated on square TS agar plates. The plates were left to dry and incubated overnight at 37°C/5% CO2.

[2] = tested on: HeLa cells; assay: Compound screen by flow cytometry: HeLa cell count as surrogate readout of cell viability (z-scoreHeLa); assay type: cell-based, human; conditions: for cell count rep 1 / z-scoreHeLa rep 1: replicate 1; for cell count rep 2 / z-scoreHeLa rep 2: replicate 2; for cell count rep 3 / z-scoreHeLa rep 3: replicate 3; for z-scoreHeLa mean: mean of 3 replicates
Procedure, shortened: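 The viability surrogate was the count of fixed HeLa cells by flow cytometry, converted to z-scores against DMSO controls with values deviating two-fold excluded. Before counting, cells had been infected with MRSA for 1 h and cleared of extracellular bacteria with gentamicin. They were then exposed overnight to kinase inhibitors in triplicate.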

[3] = tested on: intracellular MRSA; assay type: cell-based, Staphylococcus aureus; conditions: for %GFP+ rep 1 / z-scoreMRSA+ rep 1: replicate 1; for %GFP+ rep 2 / z-scoreMRSA+ rep 2: replicate 2; for %GFP+ rep 3 / z-scoreMRSA+ rep 3: replicate 3; for z-scoreMRSA+ mean: mean of 3 replicates
Procedure, shortened: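 Values are z-scores: GFP-positive HeLa percentage and event count per well against plate statistics, minus the mean DMSO z-score. Wells deviating two-fold from controls were left out of plate means. Infection was at a mean MOI of 6.8, with an overnight compound exposure.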

[4] = tested on: MRSA; assay type: in vivo, zebrafish; conditions: for survival rate of MRSA-infected zebrafish embryos: 10 µM, after 4 days, 1000 CFUs MRSA, DMSO 57.5%, uninfected 93.8%
Protocol: Zebrafish embryos were dechorionated at 24 hpf. The OD600 of a log-phase MRSA culture was centrifuged and dissolved in PBS with 2% polyvinylpyrrolidone (Merck) to improve homogeneity of the bacterial suspension. The OD600 was measured and the bacterial suspension was diluted to a final concentration of 10^9 CFUs/ml accordingly. The preparation of injection needles and the equipment used for microinjections have been previously described ([Benard et al., 2012]). At 28 hpf, zebrafish embryos were anesthetized in 200 µg/ml buffered ethyl 3-aminobenzoic acid (Tricaine, Sigma-Aldrich) and injected in the blood island with a bacterial dose of 1 nl containing 1000 CFUs of MRSA. Infected embryos were collected and randomly distributed over 6-wells plates with ten embryos/well. At 30 hpf, the infected embryos were given kinase inhibitors or DMSO as negative control. Survival of the embryos was scored at 48, 72, 96 and 120 hpf.

[5] = tested on: zebrafish embryos; assay: Zebrafish embryo toxicity test; assay type: in vivo; conditions: for further signs of toxicity in zebrafish embryos: serial dilutions; for concentration well tolerated in zebrafish embryos: wild type AB/TL
Protocol: All experiments with zebrafish were done on embryos or larvae up to 5 days post fertilization, which have not yet reached the free-feeding stage and which were of the wild type AB/TL line. Fertilized embryos were maintained at 28°C and kept in egg water containing 60 μg/ml Instant Ocean Sea Salt (Sera, Heinsberg Germany). Zebrafish embryos were dechorionated with Dumont #5 forceps (Fine Science Tools Inc., Foster City, CA, USA) at 24 hours post fertilization (hpf) and transferred to 96-wells plates with each well containing a single embryo. Subsequently, the embryos were treated with kinase inhibitors or DMSO at 30 hpf. The health status of the embryos was assessed at 120 hpf. Healthy embryos were given a health score of 5. Health points were withdrawn for each of the following symptoms: no responsiveness to physical stimulation, cranial malformations, oedema or tail malformations. Dead embryos were given a health score of 0.

[6] = tested on: HeLa, MelJuSo, A549, MCF7 and PMA-differentiated THP-1 cells; assay: Light microscopy of cell morphology (cytopathogenic effects); assay type: cell-based, human; conditions: for changes in cell morphology / cytopathogenic effects by light microscopy: 10 µM, HeLa, MelJuSo, A549, MCF7, THP-1 cells
[7] = PKIS compound screen raw data, HeLa cell count
[8] = PKIS compound screen, HeLa cell count
[9] = PKIS compound screen, Yes/No call
[10] = PKIS compounds raw data, HeLa cell count
[11] = PKIS compound screen raw data, MRSA-infected HeLa cells
[12] = PKIS compound screen, MRSA-infected HeLa cells
[13] = PKIS compound screen, Yes/No call (effect without cell death)
[14] = PKIS compounds raw data, MRSA-infected HeLa cells
[15] = compound screen, HeLa cell count
[16] = compound screen, MRSA-infected HeLa cells

CC(C)c1nc(-c2cccc(NS(=O)(=O)c3c(F)cccc3F)c2F)c(-c2ccnc(Nc3ccc(N4CCOCC4)nc3)n2)s1 [GSK2008607A]
reduction in bacterial burden (CFU) [1]: 81%
cell count rep 1 [2, 7]: 21178
cell count rep 2 [2, 7]: 14585
cell count rep 3 [2, 7]: 12213
z-scoreHeLa mean [2, 8]: -1.56
z-scoreHeLa rep 1 [2, 8]: -1.53
z-scoreHeLa rep 2 [2, 8]: -1.83
z-scoreHeLa rep 3 [2, 8]: -1.31
cell death [2, 9]: No
cell death ([2]; PKIS compound screen, Yes/No call on z-scoreHeLa): No
z-scoreHeLa mean ([2]; PKIS compound screen): -1.34
z-scoreHeLa rep 1 ([2]; PKIS compound screen): -1.52
z-scoreHeLa rep 2 ([2]; PKIS compound screen): -1.39
z-scoreHeLa rep 3 ([2]; PKIS compound screen): -1.10
cell count rep 1 [2, 10]: 3519
cell count rep 2 [2, 10]: 3908
cell count rep 3 [2, 10]: 3860
%GFP+ rep 1 [3, 11]: 8.4%
%GFP+ rep 2 [3, 11]: 9.2%
%GFP+ rep 3 [3, 11]: 10.2%
z-scoreMRSA+ mean [3, 12]: -2.86
z-scoreMRSA+ rep 1 [3, 12]: -2.77
z-scoreMRSA+ rep 2 [3, 12]: -2.79
z-scoreMRSA+ rep 3 [3, 12]: -3.01
effect [3, 9]: No
hit [3, 13]: No and Yes
effect ([3]; PKIS compound screen, Yes/No call on z-scoreMRSA+): Yes
z-scoreMRSA+ mean ([3]; PKIS compound screen): -0.97
z-scoreMRSA+ rep 1 ([3]; PKIS compound screen): -1.10
z-scoreMRSA+ rep 2 ([3]; PKIS compound screen): -1.14
z-scoreMRSA+ rep 3 ([3]; PKIS compound screen): -0.66
%GFP+ rep 1 [3, 14]: 21.4%
%GFP+ rep 2 [3, 14]: 20.1%
%GFP+ rep 3 [3, 14]: 23.7%
toxicity in MRSA-infected zebrafish embryos ([4]; 1 µM): severe compound-related toxicity
embryos that died, of 15 ([5]; 1 µM, 120 hpf): one
symptoms of surviving zebrafish embryos ([5]; 3 and 10 µM, 120 hpf): oedema of the heart sac and yolk, as well as unresponsiveness to physical stimulation
zebrafish embryo mortality ([5]; 3 and 10 µM, treated 30 hpf, scored 120 hpf): caused zebrafish embryo mortality
concentrations exhibiting toxicity in zebrafish embryos ([5]; zebrafish, in vivo): ≥ 1 µM
embryos that did not respond to physical stimulation, of 15 ([5]; zebrafish, in vivo): another
embryos with cranial malformations, of 15 ([5]; zebrafish, in vivo): two
embryos with oedema, of 15 ([5]; zebrafish, in vivo): three
cytopathogenic effects in HeLa cells ([6]; 1 µM): cytopathogenic effects were already observed
changes in cell morphology / cytopathogenic effects by light microscopy [6]: cytopathogenic effects were observed

COc1ccc2[nH]c3c4[nH]c5ccc(OC)cc5c4c4c(c3c2c1)C(=O)NC4=O [GW296115X]
reduction in bacterial burden (CFU) [1]: 88%
cell count rep 1 [2, 10]: 4446
cell count rep 2 [2, 10]: 4236
cell count rep 3 [2, 10]: 6955
cell death ([2]; Yes/No call from z-scoreHeLa): No
z-scoreHeLa mean [2, 15]: -0.11
z-scoreHeLa rep 1 [2, 15]: -0.30
z-scoreHeLa rep 2 [2, 15]: -0.0242
z-scoreHeLa rep 3 [2, 15]: -0.00316
z-scoreMRSA+ (z-score of GFP-positive cells) ([3]; 10 µM, 24 h, HeLa cells infected with GFP-expressing MRSA): -3.82
MRSA-infected cells (mean ± SD) ([3]; 10 µM, 24 h, HeLa cells, DMSO 14.6% ± 1.0%): 2.1% ± 0.26
%GFP+ rep 1 [3, 14]: 2.3%
%GFP+ rep 2 [3, 14]: 1.8%
%GFP+ rep 3 [3, 14]: 2.2%
effect ([3]; Yes/No call from z-scoreMRSA+): Yes
hit ([3]; Yes/No: effect without cell death): Yes
z-scoreMRSA+ mean [3, 16]: -3.82
z-scoreMRSA+ rep 1 [3, 16]: -3.48
z-scoreMRSA+ rep 2 [3, 16]: -3.91
z-scoreMRSA+ rep 3 [3, 16]: -4.06
survival rate of MRSA-infected zebrafish embryos [4]: 77.5%
further signs of toxicity in zebrafish embryos ([5]; 120 hpf): no further signs of toxicity were observed
concentration well tolerated in zebrafish embryos ([5]; zebrafish, in vivo): ≤ 10 µM
changes in cell morphology / cytopathogenic effects by light microscopy [6]: slight changes in cell morphology

O=S(=O)(CCNCc1ccc(-c2ccc3ncnc(Nc4ccc(OCc5cccc(F)c5)c(Cl)c4)c3c2)o1)c1ccccc1 [GW633459A]
reduction in bacterial burden (CFU) [1]: 81%
cell death [2, 9]: No
z-scoreHeLa mean ([2]; PKIS compound screen): 0.80
z-scoreHeLa rep 1 ([2]; PKIS compound screen): 0.28
z-scoreHeLa rep 2 ([2]; PKIS compound screen): 0.72
z-scoreHeLa rep 3 ([2]; PKIS compound screen): 1.40
cell count rep 1 [2, 10]: 5085
cell count rep 2 [2, 10]: 5223
cell count rep 3 [2, 10]: 9893
effect [3, 9]: Yes
hit [3, 13]: Yes
z-scoreMRSA+ mean ([3]; PKIS compound screen): -2.34
z-scoreMRSA+ rep 1 ([3]; PKIS compound screen): -2.22
z-scoreMRSA+ rep 2 ([3]; PKIS compound screen): -2.06
z-scoreMRSA+ rep 3 ([3]; PKIS compound screen): -2.75
%GFP+ rep 1 [3, 14]: 6.2%
%GFP+ rep 2 [3, 14]: 7.3%
%GFP+ rep 3 [3, 14]: 6.6%
survival rate of MRSA-infected zebrafish embryos [4]: 67.5%
further signs of toxicity in zebrafish embryos ([5]; 120 hpf): no further signs of toxicity were observed
concentration well tolerated in zebrafish embryos ([5]; zebrafish, in vivo): ≤ 10 µM
changes in cell morphology / cytopathogenic effects by light microscopy [6]: not observed
